Measurements as given in US9840513B2 (AbbVie S.à.r.l., priority 2015, dated 2017).

Key:
[1] = molecular target: T1, F508delCFTR in primary hBE cells with F508del/F508del CFTR mutation (Homo sapiens, UniProt P13569, DEL508-508); assay: Transepithelial Clamp Circuit on Human Bronchial Epithelial Cells Conductance Assay (hBE-TECC); type: cell-based; details: for EC50: primary hBE cells F508del/F508del, 18-24 hours at 37° C., equivalent short circuit current, 6 concentrations
T1 construct: cells isolated from CF patients with the homozygous mutation; endogenous in cells; host or cells: primary human bronchial epithelial (hBE) cells from F508del/F508del CF patients
T1 sequence (P13569 with tags, fused parts or gaps DEL508-508): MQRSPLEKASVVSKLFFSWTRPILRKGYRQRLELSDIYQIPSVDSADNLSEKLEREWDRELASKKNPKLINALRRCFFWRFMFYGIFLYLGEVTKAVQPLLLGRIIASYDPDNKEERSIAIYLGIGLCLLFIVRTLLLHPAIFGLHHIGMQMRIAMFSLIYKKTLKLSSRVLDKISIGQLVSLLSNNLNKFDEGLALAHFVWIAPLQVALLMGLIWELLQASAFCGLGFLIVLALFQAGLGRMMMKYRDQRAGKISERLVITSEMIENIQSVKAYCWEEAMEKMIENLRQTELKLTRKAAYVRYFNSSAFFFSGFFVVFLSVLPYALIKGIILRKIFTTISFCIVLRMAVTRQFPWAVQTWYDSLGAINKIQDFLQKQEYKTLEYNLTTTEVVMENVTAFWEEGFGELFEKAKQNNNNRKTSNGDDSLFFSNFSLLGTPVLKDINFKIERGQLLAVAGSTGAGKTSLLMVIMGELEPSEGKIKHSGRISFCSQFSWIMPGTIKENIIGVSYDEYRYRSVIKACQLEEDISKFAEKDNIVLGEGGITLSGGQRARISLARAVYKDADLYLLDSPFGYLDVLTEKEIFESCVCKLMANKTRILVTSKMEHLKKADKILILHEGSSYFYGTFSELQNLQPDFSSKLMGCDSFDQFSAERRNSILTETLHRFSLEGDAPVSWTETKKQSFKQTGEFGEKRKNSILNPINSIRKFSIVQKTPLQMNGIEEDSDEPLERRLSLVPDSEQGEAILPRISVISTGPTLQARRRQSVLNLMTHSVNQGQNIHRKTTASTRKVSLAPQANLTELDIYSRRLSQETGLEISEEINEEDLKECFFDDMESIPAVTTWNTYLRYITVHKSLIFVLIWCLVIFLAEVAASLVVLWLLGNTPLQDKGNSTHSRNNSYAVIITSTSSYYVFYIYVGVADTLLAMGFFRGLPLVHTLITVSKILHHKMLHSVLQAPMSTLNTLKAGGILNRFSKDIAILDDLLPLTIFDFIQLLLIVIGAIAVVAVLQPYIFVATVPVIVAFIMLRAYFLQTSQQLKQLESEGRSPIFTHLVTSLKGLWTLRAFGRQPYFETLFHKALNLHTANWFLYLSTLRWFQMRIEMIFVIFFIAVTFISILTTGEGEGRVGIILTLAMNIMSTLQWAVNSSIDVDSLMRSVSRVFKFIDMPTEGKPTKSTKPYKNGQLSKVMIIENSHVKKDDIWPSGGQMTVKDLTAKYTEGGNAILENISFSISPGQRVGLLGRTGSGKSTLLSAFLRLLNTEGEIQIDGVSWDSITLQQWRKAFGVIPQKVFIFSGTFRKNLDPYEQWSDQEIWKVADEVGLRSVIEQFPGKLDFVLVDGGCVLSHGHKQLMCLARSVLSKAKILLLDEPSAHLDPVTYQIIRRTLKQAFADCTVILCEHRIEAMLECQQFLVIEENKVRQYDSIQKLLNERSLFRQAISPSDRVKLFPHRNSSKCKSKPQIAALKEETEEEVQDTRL
Source text: Transepithelial Clamp Circuit on Human Bronchial Epithelial Cells Conductance Assay:
A cell based assay using the primary human bronchial epithelial cells (hBE) was used as a secondary assay to test novel F508delCFTR correctors for their activity on primary hBE cells with F508del/F508del CFTR mutation. The assay used a TECC-24 (Transepithelial Clamp Circuit for 24 wells) instrument that measures the functionality of the mutated channel by measuring the equivalent short circuit current (Ieq) generated by the polarized epithelial cells. The instrument works by measuring the transepithelial potential difference (Vt) and transepithelial resistance (Rt) in an open circuit format, and the Ieq is calculated by using Ohms law (Ieq=Vt/Rt). The assay was run in a 24-well format and all 24-wells were measured at the same time point giving a higher throughput for this assay.
Primary human bronchial epithelial (hBE) cells from F508del/F508delCFTR patients were expanded from 1×10^6 to 250×10^6 cells (Neuberger T, Burton B, Clark H and VanGoor F; Cystic Fibrosis, Methods in Mole Biol 741; eds. Amaral M D and Kunzelmann K, 2011). For this purpose, cells isolated from CF patients with the homozygous mutation were seeded onto 24 well Corning (Cat #3378) filter plates that were coated with 3T3 conditioned media and grown at an air-liquid interface for 35 days using an Ultroser® G supplemented differentiation media. Apical surface mucus was removed 72 hours before the experiment using 3 mM dithiothreitol (DTT) in phosphate buffered saline (PBS). The apical surface was washed again 24 hours before the experiment using PBS. The cells were incubated with the desired dose response of the corrector compounds 18-24 hours at 37° C., 5% CO2. The corrector compounds are only added on the basolateral side of the epithelial cells.
On the day of measuring the corrector activity on the TECC, the cells were switched into a bicarbonate and serum free F-12 Coon's medium and allowed to equilibrate for 90 minutes in a CO2 free incubator. At the time of measurement, the apical and basolateral sides of the filter were bathed with the F-12 Coon's modification media (with 20 mM 4-(2-hydroxyethyl)-1-piperazineethanesulfonic acid (HEPES), pH 7.4 (using 1 M tris(hydroxymethyl)aminomethane (Tris)), and the measurements were made at 36.5° C. Transepithelial voltage (Vt) and transepithelial resistance (Rt) were measured using a 24 channel transepithelial current clamp (TECC-24). Current responses to the sequential addition of benzamil (apical 6 μM addition; for inhibiting epithelial ENaC channel), forskolin (apical and basolateral 10 μM addition; for activating the CFTR channel), control potentiator (N-(3-carbamoyl-5,5,7,7-tetramethyl-4,7-dihydro-5H-thieno[2,3-c]pyran-2-yl)-1H-pyrazole-5-carboxamide; apical and basolateral […] addition; for potentiating the CFTR channel) and bumetanide (basolateral 20 μM addition; for inhibiting the Na:2Cl:K co-transporter, an indirect measure of inhibiting the Cl-secretion driven by CFTR channel) were measured.
All plates contained negative controls (dimethyl sulfoxide, DMSO) which coupled with the control potentiator (N-(3-carbamoyl-5,5,7,7-tetramethyl-4,7-dihydro-5H-thieno[2,3-c]pyran-2-yl)-1H-pyrazole-5-carboxamide) sets the null response and positive controls (3 μM of 3-[(2R,4R)-4-({[1-(2,2-difluoro-1,3-benzodioxol-5-yl)cyclopropyl]carbonyl}amino)-7-methoxy-3,4-dihydro-2H-chromen-2-yl]benzoic acid) coupled with the control potentiator sets the 100% response to measure the correction of the mutated CFTR channel. The maximum percent activity is reported relative to the positive control value.
The % activity measured at each of the 6 test concentrations of the test compound was normalized to the on-plate positive control using the following formula: % activity=[[…]]*100 […]

[2] = molecular target: T2, F508delCFTR cell surface expression in CFBE41o-F508delCFTR-HRP cells (Homo sapiens, UniProt P13569, DEL508-508); assay: Cell Surface Expression-Horse Radish Peroxidase (CSE-HRP) Assay; type: cell-based; details: for EC50: CFBE41o-F508delCFTR-HRP cells, 18-24 hours at 33° C., 8-point curve, highest concentration 20 μM; for Maximum % activity (%): maximum at any tested concentration, normalized to on-plate positive control (3 μM)
T2 construct: fused on or other part: Horseradish peroxidase (HRP) reporter inserted in the fourth exofacial (extracellular) loop of CFTR; expression is doxycycline-inducible
T2 sequence (P13569 with tags, fused parts or gaps DEL508-508 limits assumed): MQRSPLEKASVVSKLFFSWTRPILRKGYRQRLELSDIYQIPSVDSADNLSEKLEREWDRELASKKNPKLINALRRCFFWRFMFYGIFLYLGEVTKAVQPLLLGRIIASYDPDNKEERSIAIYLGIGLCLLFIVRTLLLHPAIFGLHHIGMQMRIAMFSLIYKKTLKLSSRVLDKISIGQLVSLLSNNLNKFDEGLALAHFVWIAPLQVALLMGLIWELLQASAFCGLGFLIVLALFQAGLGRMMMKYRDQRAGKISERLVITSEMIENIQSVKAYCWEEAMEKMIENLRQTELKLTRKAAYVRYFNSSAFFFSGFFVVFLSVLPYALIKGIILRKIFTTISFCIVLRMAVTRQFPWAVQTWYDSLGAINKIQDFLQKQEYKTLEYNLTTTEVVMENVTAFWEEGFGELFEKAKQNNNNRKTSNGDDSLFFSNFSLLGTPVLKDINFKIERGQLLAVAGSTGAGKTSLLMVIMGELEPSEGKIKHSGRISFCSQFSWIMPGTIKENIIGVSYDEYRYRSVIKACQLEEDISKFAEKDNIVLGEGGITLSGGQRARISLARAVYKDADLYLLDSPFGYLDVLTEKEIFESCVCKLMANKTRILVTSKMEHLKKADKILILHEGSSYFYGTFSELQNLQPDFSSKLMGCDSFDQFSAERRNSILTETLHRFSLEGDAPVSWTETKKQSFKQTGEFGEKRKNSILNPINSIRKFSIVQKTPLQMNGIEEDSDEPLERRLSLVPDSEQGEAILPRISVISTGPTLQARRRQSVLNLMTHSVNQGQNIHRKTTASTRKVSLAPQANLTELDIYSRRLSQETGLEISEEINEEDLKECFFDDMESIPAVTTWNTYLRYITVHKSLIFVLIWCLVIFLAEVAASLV
T2 sequence (P13569 919-1480 limits assumed, stated change not applied): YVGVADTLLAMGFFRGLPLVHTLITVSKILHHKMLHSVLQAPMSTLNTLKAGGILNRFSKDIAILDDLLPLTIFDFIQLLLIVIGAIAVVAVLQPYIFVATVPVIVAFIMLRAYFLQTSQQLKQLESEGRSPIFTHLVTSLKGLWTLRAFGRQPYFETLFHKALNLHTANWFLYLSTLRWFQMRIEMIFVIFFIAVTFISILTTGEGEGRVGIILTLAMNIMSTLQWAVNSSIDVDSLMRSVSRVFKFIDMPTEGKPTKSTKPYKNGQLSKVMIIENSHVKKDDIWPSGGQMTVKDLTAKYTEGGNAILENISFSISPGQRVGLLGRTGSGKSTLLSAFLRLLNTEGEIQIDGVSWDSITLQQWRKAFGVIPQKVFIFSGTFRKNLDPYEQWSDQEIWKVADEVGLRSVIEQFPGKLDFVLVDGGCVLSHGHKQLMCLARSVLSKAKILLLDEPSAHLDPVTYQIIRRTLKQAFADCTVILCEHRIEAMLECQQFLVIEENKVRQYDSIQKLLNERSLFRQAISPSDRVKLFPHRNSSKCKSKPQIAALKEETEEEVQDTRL
Summary of the method: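 Correctors incubated 18-24 h at 33 °C on doxycycline-induced (0.5 μg/mL, 72 h) CFBE41o-F508delCFTR-HRP cells, 3-fold series from 20 μM. After DPBS washes, luminol luminescence read; activity expressed relative to DMSO and a 3 μM positive control, EC50 fitted from triplicate plates.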

[3] = relative to positive control (3 μM) coupled with control potentiator

SMILES | EC50 [1] [nM] | Maximum % activity (%) [1, 3] [%] | EC50 [2] [nM] | Maximum % activity (%) [2] [%] | Maximum % activity (%) ([1]; testing concentration 10 μM) | Maximum % activity (%) ([1]; testing concentration 3 μM) | Maximum % activity (%) ([1]; testing concentration 1 μM)
C[C@]1(C(=O)Nc2cc3cc(C4(CO)CC4)n(C[C@@H](O)CO)c3cc2F)COc2cc3c(cc21)OC(F)(F)O3 [Example 136, (7R)—N-{1-[(2R)-2,3-dihydroxypropyl]-6-fluoro-2-[1-(hydroxymethyl)cyclopropyl]-1H-indol-5-yl}-2,2-difluoro-7-methyl-6,7-dihydro-2H-furo[2,3-f][1,3]benzodioxole-7-carboxamide] | 745 | 48 | 910 | 99 |  |  | 
CC(C)(CO)c1cc2cc(NC(=O)[C@@]3(C)COc4cc5c(cc43)OC(F)(F)O5)c(F)cc2n1C[C@@H](O)CO [Example 130, (7R)—N-{1-[(2R)-2,3-dihydroxypropyl]-6-fluoro-2-(1-hydroxy-2-methylpropan-2-yl)-1H-indol-5-yl}-2,2-difluoro-7-methyl-6,7-dihydro-2H-furo[2,3-f][1,3]benzodioxole-7-carboxamide] | 67 | 72 | 390 | 105 |  |  | 
COc1ccc2c(c1)O[C@@H]([C@H]1CC[C@H](C(=O)O)CC1)C[C@H]2NC(=O)[C@@]1(C)COc2cc3c(cc21)OC(F)(F)O3 [Example 155, trans-4-[(2R,4R)-4-{[(7R)-2,2-difluoro-7-methyl-6,7-dihydro-2H-furo[2,3-f][1,3]benzodioxole-7-carbonyl]amino}-7-methoxy-3,4-dihydro-2H-1-benzopyran-2-yl]cyclohexane-1-carboxylic acid] | 20 | 102 | 92 | 137 |  |  | 
CC1(C(=O)Nc2cc(-c3ccccc3)nn(C[C@@H](O)CO)c2=O)COc2cc3c(cc21)OC(F)(F)O3 (stereo partly drawn) [Example 25, N-{2-[(2R)-2,3-dihydroxypropyl]-3-oxo-6-phenyl-2,3-dihydropyridazin-4-yl}-2,2-difluoro-7-methyl-6,7-dihydro-2H-furo[2,3-f][1,3]benzodioxole-7-carboxamide] |  |  | 1160 | 82 | 61 |  | 
COc1ccc2c(c1)O[C@@H](c1ccc(C(=O)O)nc1)C[C@H]2NC(=O)[C@@]1(C)COc2cc3c(cc21)OC(F)(F)O3 [Example 146, 5-[(2R,4R)-4-{[(7R)-2,2-difluoro-7-methyl-6,7-dihydro-2H-furo[2,3-f][1,3]benzodioxole-7-carbonyl]amino}-7-methoxy-3,4-dihydro-2H-1-benzopyran-2-yl]pyridine-2-carboxylic acid] | 160 | 89 | 335 | 153 |  |  | 
COc1ccc2c(c1)O[C@@H](c1ccc(C(=O)N3C[C@@H](O)[C@H](O)C3)cn1)C[C@H]2NC(=O)[C@@]1(C)COc2cc3c(cc21)OC(F)(F)O3 [Example 248, (7R)—N-[(2R,4R)-2-{5-[(3R,4R)-3,4-dihydroxypyrrolidine-1-carbonyl]pyridin-2-yl}-7-methoxy-3,4-dihydro-2H-1-benzopyran-4-yl]-2,2-difluoro-7-methyl-6,7-dihydro-2H-furo[2,3-f][1,3]benzodioxole-7-carboxamide] | 32 | 105 | 90 | 116 |  |  | 
CC1(c2cc3cc(NC(=O)[C@@]4(C)COc5cc6c(cc54)OC(F)(F)O6)c(F)cc3n2C[C@@H](O)CO)COC1 [Example 171, (7R)—N-{1-[(2R)-2,3-dihydroxypropyl]-6-fluoro-2-(3-methyloxetan-3-yl)-1H-indol-5-yl}-2,2-difluoro-7-methyl-6,7-dihydro-2H-furo[2,3-f][1,3]benzodioxole-7-carboxamide] | 352 | 45 | 660 | 92 |  |  | 
C[C@]1(C(=O)N[C@H]2C[C@@H](c3ccccc3)O[C@@H](c3ccc(C(=O)O)cc3)C2)COc2cc3c(cc21)OC(F)(F)O3 (single isomer, unassigned) [Example 44] | 246 | 83 | 930 | 114 |  |  | 
C[C@]1(C(=O)N[C@@H]2C[C@H]([C@H]3CC[C@H](C(=O)O)CC3)Oc3cc(OC(F)(F)F)ccc32)COc2cc3c(cc21)OC(F)(F)O3 [Example 150, trans-4-[(2R,4R)-4-{[(7R)-2,2-difluoro-7-methyl-6,7-dihydro-2H-furo[2,3-f][1,3]benzodioxole-7-carbonyl]amino}-7-(trifluoromethoxy)-3,4-dihydro-2H-1-benzopyran-2-yl]cyclohexane-1-carboxylic acid] | 10 | 94 | 26 | 145 |  |  | 
COc1ccc2c(c1)O[C@@H](c1ccc(C(=O)O)cc1)C[C@H]2NC(=O)C1(C)COc2c1ccc1c2OC(F)(F)O1 (stereo partly drawn) [Example 39, 4-{(2R,4R)-4-[(2,2-difluoro-6-methyl-6,7-dihydro-2H-furo[2,3-e][1,3]benzodioxole-6-carbonyl)amino]-7-methoxy-3,4-dihydro-2H-1-benzopyran-2-yl}benzoic acid] |  |  | 1260 | 106 |  | 47 | 
COc1ccc2c(c1)O[C@@H](c1ccc(C(=O)O)cn1)C[C@H]2NC(=O)[C@@]1(C)COc2cc3c(cc21)OC(F)(F)O3 [Example 89, 6-[(2R,4R)-4-{[(7R)-2,2-difluoro-7-methyl-6,7-dihydro-2H-furo[2,3-f][1,3]benzodioxole-7-carbonyl]amino}-7-methoxy-3,4-dihydro-2H-1-benzopyran-2-yl]pyridine-3-carboxylic acid] |  |  | 10 | 112 |  |  | 84
C[C@]1(C(=O)N[C@@H]2C[C@H]([C@H]3CC[C@H](C(=O)O)CC3)Oc3cc(OC(F)(F)F)ccc32)CCc2cc3c(cc21)OC(F)(F)O3 [Example 167, trans-4-[(2R,4R)-4-{[(5S)-2,2-difluoro-5-methyl-6,7-dihydro-2H,5H-indeno[5,6-d][1,3]dioxole-5-carbonyl]amino}-7-(trifluoromethoxy)-3,4-dihydro-2H-1-benzopyran-2-yl]cyclohexane-1-carboxylic acid] | 87 | 112 | 53 | 135 |  |  | 
C[C@]1(C(=O)N[C@@H]2C[C@H]([C@H]3CC[C@@H](C(=O)O)CC3)Oc3cc(OC(F)(F)F)ccc32)COc2cc3c(cc21)OC(F)(F)O3 [Example 162, cis-4-[(2R,4R)-4-{[(7R)-2,2-difluoro-7-methyl-6,7-dihydro-2H-furo[2,3-f][1,3]benzodioxole-7-carbonyl]amino}-7-(trifluoromethoxy)-3,4-dihydro-2H-1-benzopyran-2-yl]cyclohexane-1-carboxylic acid] | 20 | 86 | 712 | 120 |  |  | 
